BindingDB's records for patent US12473304 (Bristol-Myers Squibb, 2025)

Target: Protein-arginine deiminase type-4 (Homo sapiens, UniProt Q9UM07)
Assay: RFMS Human PAD4 Functional Assay 1
Procedure: Reaction volume: 26 μlAssay buffer: 25 mM hepes, pH 7.5, 5 mM NaCl, 1 mM DTT, 0.2 mg/ml BSA, 0.01% CHAPS, 50 μM Calcium, and 5 μM TPENFinal concentrations: 5 nM hPAD4 enzyme, 250 μM BASE, and 0.5% DMSOTotal incubation time: 30 mins compound and enzyme preincubation at 37° C., 90 min enzyme/substrate reaction, 30 min reaction with phenyl glyoxal at 37° C.Stop solution: 40 μl 5% TCA in ACN0.13 μL of compound solution was added to 13 μL of 10 nM PAD4 in assay buffer. After 30 min 13 μl of 500 μM of BAEE was added in 25 mM hepes, pH 7.5, 5 mM NaCl, 1 mM DTT, 0.2 mg/ml BSA, 0.01% CHAPS, 50 μM Calcium, 5 μM TPEN was added and the reaction incubated for 90 min at 37° C. The enzymatic reaction was quenched by addition of 15 μl of 6.1N TCA, 100% Final Concentration is 20%, 35 μl of 8.5 mM phenyl glyoxal (final concentration 4 mM) is then added and the reaction is incubated for 30 min at 37° C.After 30 minutes the plates are spun down to remove all precipitate. The enzyme reaction was quenched with an equal volume of methanol containing internal standard (modified citrulline). Samples were loaded onto the Rapid Fire RF300 system (Agilent) wherein they were first sipped for 1000 ms and then directly loaded to a C18 separations cartridge using a mixture of acetonitrile containing 0.01% formic acid for 3000 ms desalting. The flow rate of the mobile phase was 1.5 ml/min. Once the samples were eluted from the cartridge, a mobile phase of acetonitrile containing 0.01% formic acid was used to move the samples into the mass spectrometer for 4000 ms at a flow rate of 1.25 ml/min/Sciex API5500 triple quadrupole mass spectrometer (Applied Biosystems) equipped with ESI was used to analyze the peptidyl citrulline and internal standard ions.

Sequence of Protein-arginine deiminase type-4 (Q9UM07 whole entry): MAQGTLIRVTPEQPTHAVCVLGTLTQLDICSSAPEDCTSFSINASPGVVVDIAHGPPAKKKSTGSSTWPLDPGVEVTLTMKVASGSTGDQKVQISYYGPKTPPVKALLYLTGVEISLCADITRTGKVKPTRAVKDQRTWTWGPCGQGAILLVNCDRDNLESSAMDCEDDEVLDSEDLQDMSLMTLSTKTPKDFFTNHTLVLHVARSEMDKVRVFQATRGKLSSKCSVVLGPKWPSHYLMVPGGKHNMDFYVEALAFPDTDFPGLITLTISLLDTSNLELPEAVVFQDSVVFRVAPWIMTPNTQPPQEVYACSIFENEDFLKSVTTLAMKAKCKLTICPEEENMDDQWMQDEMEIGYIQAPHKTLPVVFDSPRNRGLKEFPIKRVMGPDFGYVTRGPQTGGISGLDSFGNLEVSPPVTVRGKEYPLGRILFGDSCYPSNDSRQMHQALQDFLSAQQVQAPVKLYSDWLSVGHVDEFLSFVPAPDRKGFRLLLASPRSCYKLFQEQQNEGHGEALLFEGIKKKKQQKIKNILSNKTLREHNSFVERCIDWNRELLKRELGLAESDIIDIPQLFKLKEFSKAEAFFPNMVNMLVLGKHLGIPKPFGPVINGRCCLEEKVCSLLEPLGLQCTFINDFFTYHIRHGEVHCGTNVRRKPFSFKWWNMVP

SMILES | IC50 [nM]
COc1cc(C(=O)N2C[C@H](N)C[C@@H](F)C2)cn2nc(-c3cc4ccc(-c5cc(F)c(C(N)=O)cc5C)nc4n3CC3CC3)c(C)c12 [US12473304, Example 207] | 150
COc1cc(C(=O)N2C[C@H](N)C[C@@H](F)C2)cn2nc(-c3cc4ccc(Cl)nc4n3CC3CC3)c(C)c12 [US12473304, Example 15] | 526
COc1cc(C(=O)N2CCC[C@@H](N)C2)cn2nc(-c3cc4ccc(-c5cc(F)c(C(N)=O)cc5C)nc4n3CC3CC3)c(C)c12 [US12473304, Example 208] | 140

The next molecules have a lower IC50 than those just listed; values first:

IC50 [nM] | SMILES
55 | Cc1c(-c2cc3ccc(-c4ccc5c(c4)CNC5=O)nc3n2CC2CC2)nn2cc(C(=O)N3CC4CCC3[C@@H]4N)ccc12 (stereo not given in full) [US12473304, Example 64]
30 | COc1cc(C(=O)N2CC3CCC2[C@@H]3N)cn2nc(-c3cc4ccc(C(C)(C)O)cc4n3CC3CC3)c(C)c12 (stereo not given in full) [US12473304, Example 97]
